# Test results published in patent US9260429B2, “Pyrido[3,4-B]indoles and methods of use” (Medivation Technologies, Inc., priority 2008, dated 2016).
# Where two headings read alike, the source gives them in different places.
# Legend:
# [1] = molecular target: T1, human recombinant histamine H1 receptor (Homo sapiens, UniProt P35367); test: Histamine H1 radioligand binding ([3H]Pyrilamine)
# T1 construct: expressed in transfected cells; host or cells: CHO cells
# Method in brief: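 Binding to the human recombinant histamine H1 receptor, expressed in CHO cells, was measured in a modified Tris-HCl buffer (50 mM Tris-HCl, pH 7.4, 2 mM MgCl2, 100 mM NaCl, 250 mM Sucrose). Compounds were incubated with 1.2 nM [3H]Pyrilamine for 180 minutes at 25° C, with 1 μM pyrilamine defining non-specific binding. After filtration and washing, filter counts gave percent inhibition of specific binding.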
# [2] = molecular target: T2, human recombinant histamine H2 receptor (Homo sapiens, UniProt P25021); test: Histamine H2 radioligand binding ([125I]Aminopotentidine)
# T2 construct: expressed in transfected cells; host or cells: CHO-K1 cells
# Method in brief: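 Membranes of CHO-K1 cells expressing human H2 receptor incubated with 0.1 nM [125I]aminopotentidine, 120 min, 25 °C, 50 mM phosphate pH 7.4; nonspecific binding defined with 3 μM tiotidine.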
# [3] = molecular target: T3, human recombinant serotonin (5-Hydroxytryptamine) 5-HT2A receptor (Homo sapiens, UniProt P28223); test: Serotonin 5-HT2A radioligand binding ([3H]Ketanserin)
# T3 construct: expressed in transfected cells; host or cells: CHO-K1 cells
# Method in brief: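 Membranes from CHO-K1 cells expressing the receptor, in 50 mM Tris-HCl pH 7.4, incubated 60 min at 25° C with 0.5 nM [3H]Ketanserin; 1 μM Mianserin defines non-specific binding. Filtration and counting; values are % inhibition of specific binding at 1 μM or lower, 1% DMSO.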
# [4] = molecular target: T4, human recombinant serotonin (5-Hydroxytryptamine) 5-HT2C receptor (Homo sapiens, UniProt P28335); test: Serotonin 5-HT2C radioligand binding ([3H]Mesulergine)
# T4 construct: expressed in transfected cells; host or cells: CHO-K1 cells
# T4 sequence (P28335 33-458): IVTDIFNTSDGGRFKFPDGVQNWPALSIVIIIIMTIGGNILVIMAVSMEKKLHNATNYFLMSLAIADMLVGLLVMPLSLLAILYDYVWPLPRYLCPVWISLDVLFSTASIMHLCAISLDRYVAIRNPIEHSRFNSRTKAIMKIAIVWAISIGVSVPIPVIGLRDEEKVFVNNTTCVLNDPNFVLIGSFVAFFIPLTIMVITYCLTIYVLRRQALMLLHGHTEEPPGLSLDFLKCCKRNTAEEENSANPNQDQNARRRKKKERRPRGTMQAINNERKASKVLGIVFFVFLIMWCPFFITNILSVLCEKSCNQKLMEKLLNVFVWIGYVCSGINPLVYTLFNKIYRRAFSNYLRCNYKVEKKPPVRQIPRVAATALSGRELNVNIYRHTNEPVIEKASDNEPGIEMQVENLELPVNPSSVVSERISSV
# Protocol: Compounds of the invention were incubated with 1 nM [^3H]Mesulergine for 60 minutes at 25° C. Non-specific binding was estimated in the presence of 1 μM Mianserin. Receptor proteins were filtered and washed, the filters were then counted to determine [^3H]Mesulergine specifically bound. […] Biochemical assay results are presented as the percent inhibition of specific binding in Table 5.
# [5] = molecular target: T5, human recombinant serotonin (5-Hydroxytryptamine) 5-HT6 receptor (Homo sapiens, UniProt P50406); test: Serotonin 5-HT6 radioligand binding ([3H]LSD)
# T5 construct: expressed in transfected cells; host or cells: human HeLa cells
# Method in brief: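 Human 5-HT6 receptor expressed in HeLa cells, in Tris-HCl pH 7.4 with 150 mM NaCl, ascorbic acid and BSA. Compounds at 1 μM or lower (1% DMSO) incubated 120 min at 37° C with 1.5 nM [3H]LSD. Non-specific binding defined with serotonin; filter counting gives % inhibition of specific binding.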
# [6] = 1 μM, read-out: Binding data (Percentage Inhibition) Histamine Binding (1 μM) H1
# [7] = 1 μM, inhibition of specific [125I]Aminopotentidine binding, read-out: Binding data (Percentage Inhibition) Histamine Binding (1 μM) H2
# [8] = 1 h, read-out: Percent Inhibition of ligand binding Serotonin (1 μM ligand concentration) 5-HT2A
# [9] = 1 h, read-out: Percent Inhibition of ligand binding Serotonin (1 μM ligand concentration) 5-HT2C
# [10] = 2 h, read-out: Percent Inhibition of ligand binding Serotonin (1 μM ligand concentration) 5-HT6
# T2 sequence (P25021 whole entry): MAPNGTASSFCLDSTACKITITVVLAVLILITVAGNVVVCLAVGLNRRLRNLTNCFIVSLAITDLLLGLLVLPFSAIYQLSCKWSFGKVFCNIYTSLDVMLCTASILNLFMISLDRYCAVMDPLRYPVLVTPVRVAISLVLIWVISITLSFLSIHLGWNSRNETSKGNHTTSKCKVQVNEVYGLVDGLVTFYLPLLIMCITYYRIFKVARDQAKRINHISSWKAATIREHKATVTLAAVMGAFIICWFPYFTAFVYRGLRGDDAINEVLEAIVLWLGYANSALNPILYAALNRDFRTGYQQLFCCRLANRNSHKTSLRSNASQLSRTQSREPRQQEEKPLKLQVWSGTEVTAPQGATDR
# T5 sequence (P50406 whole entry): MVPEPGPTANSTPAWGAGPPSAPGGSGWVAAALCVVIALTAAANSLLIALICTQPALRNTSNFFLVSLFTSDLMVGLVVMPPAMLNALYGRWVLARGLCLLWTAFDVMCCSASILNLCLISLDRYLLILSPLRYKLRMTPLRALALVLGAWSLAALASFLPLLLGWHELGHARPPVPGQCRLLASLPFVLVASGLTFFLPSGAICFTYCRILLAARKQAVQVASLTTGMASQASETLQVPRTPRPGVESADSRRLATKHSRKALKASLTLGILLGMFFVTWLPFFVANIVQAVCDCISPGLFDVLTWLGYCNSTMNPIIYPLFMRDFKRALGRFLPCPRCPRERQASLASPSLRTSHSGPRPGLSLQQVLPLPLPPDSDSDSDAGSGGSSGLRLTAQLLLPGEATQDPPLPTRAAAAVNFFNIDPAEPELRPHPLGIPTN
# T3 sequence (P28223 whole entry): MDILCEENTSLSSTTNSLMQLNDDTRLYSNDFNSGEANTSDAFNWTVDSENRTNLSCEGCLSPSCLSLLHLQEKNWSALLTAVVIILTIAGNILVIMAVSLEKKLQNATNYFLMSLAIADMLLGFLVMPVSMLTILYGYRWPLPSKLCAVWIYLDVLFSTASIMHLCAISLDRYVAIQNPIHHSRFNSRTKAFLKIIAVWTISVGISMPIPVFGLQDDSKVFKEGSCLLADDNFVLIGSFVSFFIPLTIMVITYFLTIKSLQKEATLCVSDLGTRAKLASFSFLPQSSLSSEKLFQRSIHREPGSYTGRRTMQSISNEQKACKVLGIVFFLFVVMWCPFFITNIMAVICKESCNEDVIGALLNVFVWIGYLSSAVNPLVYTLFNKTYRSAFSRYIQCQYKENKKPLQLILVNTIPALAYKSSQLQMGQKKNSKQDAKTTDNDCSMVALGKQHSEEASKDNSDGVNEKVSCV
# T1 sequence (P35367 whole entry): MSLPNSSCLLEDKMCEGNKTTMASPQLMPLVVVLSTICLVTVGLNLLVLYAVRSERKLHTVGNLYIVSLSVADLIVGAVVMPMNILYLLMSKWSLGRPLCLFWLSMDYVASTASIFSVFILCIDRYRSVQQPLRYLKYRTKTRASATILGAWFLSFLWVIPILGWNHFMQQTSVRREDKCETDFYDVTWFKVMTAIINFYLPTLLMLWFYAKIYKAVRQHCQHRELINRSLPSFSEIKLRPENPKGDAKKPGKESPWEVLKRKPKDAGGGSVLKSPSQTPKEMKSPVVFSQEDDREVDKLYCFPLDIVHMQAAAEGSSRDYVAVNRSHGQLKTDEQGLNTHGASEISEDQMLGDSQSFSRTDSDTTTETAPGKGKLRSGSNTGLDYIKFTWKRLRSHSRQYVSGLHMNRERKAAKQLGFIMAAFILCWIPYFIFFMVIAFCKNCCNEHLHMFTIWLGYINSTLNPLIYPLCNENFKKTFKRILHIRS
SMILES,"inhibition at 1 µM [1, 6]","inhibition at 1 µM [2, 7]","inhibition at 1 µM [3, 8]","inhibition at 1 µM [4, 9]","inhibition at 1 µM [5, 10]",also measured
C/C(=C\n1c2c(c3cc(C)ccc31)CCN(C)C2C)c1ccccc1F (centres unmarked) [Compound 166],79%,90%,102%,96%,95%,"inhibition at 0.3 µM ([1]; compound concentration 0.3 μM, read-out: Percentage inhibition of ligand binding to H1 receptor): 23%; inhibition at 1 µM ([1]; compound concentration 1 μM, read-out: Percentage inhibition of ligand binding to H1 receptor): 79%; inhibition at 3 µM ([1]; compound concentration 3 μM, read-out: Percentage inhibition of ligand binding to H1 receptor): 77%; inhibition at 1 µM ([2]; compound concentration 1 μM, read-out: Percentage inhibition of ligand binding to H2 receptor): 90%; inhibition at 0.01 µM ([3]; compound concentration 10 nM, read-out: Percentage inhibition of ligand binding to 5-HT2A receptor): 15%; inhibition at 0.03 µM ([3]; compound concentration 0.03 μM, read-out: Percentage inhibition of ligand binding to 5-HT2A receptor): 46%; inhibition at 0.1 µM ([3]; compound concentration 0.1 μM, read-out: Percentage inhibition of ligand binding to 5-HT2A receptor): 74%; inhibition at 0.3 µM ([3]; compound concentration 0.3 μM, read-out: Percentage inhibition of ligand binding to 5-HT2A receptor): 81%; inhibition at 1 µM ([3]; compound concentration 1 μM, read-out: Percentage inhibition of ligand binding to 5-HT2A receptor): 102%; inhibition at 0.01 µM ([4]; compound concentration 10 nM, read-out: Percentage inhibition of ligand binding to 5-HT2C receptor): 33%; inhibition at 0.03 µM ([4]; compound concentration 0.03 μM, read-out: Percentage inhibition of ligand binding to 5-HT2C receptor): 62%; inhibition at 0.1 µM ([4]; compound concentration 0.1 μM, read-out: Percentage inhibition of ligand binding to 5-HT2C receptor): 87%; inhibition at 0.3 µM ([4]; compound concentration 0.3 μM, read-out: Percentage inhibition of ligand binding to 5-HT2C receptor): 93%; inhibition at 1 µM ([4]; compound concentration 1 μM, read-out: Percentage inhibition of ligand binding to 5-HT2C receptor): 96%; inhibition at 0.01 µM ([5]; compound concentration 10 nM, read-out: Percentage inhibition of ligand binding to 5-HT6 receptor): 13%; inhibition at 0.03 µM ([5]; compound concentration 0.03 μM, read-out: Percentage inhibition of ligand binding to 5-HT6 receptor): 16%; inhibition at 0.1 µM ([5]; compound concentration 0.1 μM, read-out: Percentage inhibition of ligand binding to 5-HT6 receptor): 38%; inhibition at 0.3 µM ([5]; compound concentration 0.3 μM, read-out: Percentage inhibition of ligand binding to 5-HT6 receptor): 55%; inhibition at 1 µM ([5]; compound concentration 1 μM, read-out: Percentage inhibition of ligand binding to 5-HT6 receptor): 95%"
"CN1CCc2c(n(CCCC(=O)N3CCCCC3)c3ccc(Cl)cc23)C1 [Compound 44, 4-(6-chloro-1,2,3,4-tetrahydro-2-methylpyrido[3,4-b]indol-9-yl)-1-(piperidin-1-yl)butan-1-one]",62%,9%,73%,54%,12%,
COc1ccc(C(O)Cn2c3c(c4cc(C)ccc42)CCN(C)C3)cc1OC (centres unmarked) [Compound 66],19%,1%,51%,48%,5%,
Cc1ccc2c(c1)c1c(n2C(=O)Cc2ccc(Cl)cc2)C(c2ccccc2)N(C)CC1 (centres unmarked) [Compound 163],13%,27%,98%,96%,89%,
"Cc1ccc(CCCn2c3c(c4cc(Cl)ccc42)CCN(C)C3)cn1 [Compound 56, 6-chloro-2-methyl-9-(3-(6-methylpyridin-3-yl)propyl)-2,3,4,9-tetrahydro-1H-pyrido[3,4-b]indole]",30%,20%,12%,-3%,-3%,
"Cc1ccc2c(c1)c1c(n2CC(O)c2ccccc2F)CN(C)CC1 (centres unmarked) [Compound 60, 2-(2,6-dimethyl-3,4-dihydro-1H-pyrido[3,4-b]indol-9(2H)-yl)-1-(2-fluorophenyl)ethanol]",19%,15%,74%,5%,62%,
"COC(=O)Cn1c2c(c3cc(C)ccc31)CCN(C)C2 [Compound 21, methyl 2-(1,2,3,4-tetrahydro-2,6-dimethylpyrido[3,4-b]indol-9-yl)acetate]",3%,2%,4%,,6%,Percent Inhibition of ligand binding Serotonin (1 μM ligand concentration) 5-HT2C ([4]; 1 μM ligand concentration): 16%
"CN1CCc2c(n(CC(=O)N(C)C)c3ccc(Cl)cc23)C1 [Compound 16, 2-(6-chloro-1,2,3,4-tetrahydro-2-methylpyrido[3,4-b]indol-9-yl)-N,N-dimethylacetamide]",16%,1%,10%,-18%,9%,
